# Measured values as given in patent publication US5480885A, “Ergoline derivatives of 1-propinylamine, a process for the manufacture thereof and the use thereof for medicaments” (priority 1991, dated 1996).
# Entries after “also recorded” stand apart in the source; their conditions may differ. Read-outs that look alike come from different tables or passages of the source.
# Key:
# [1] = system: isolated rabbit thoracic aorta; assay: constriction of the isolated rabbit thoracic aorta
# isolated rat uterus = assay: uterotonic activity (isolated rat uterus); conditions: in words
# pupil = assay: dilatation of the pupil in mice (Pulewka); assay type: in vivo; conditions: in words
# D2 receptor = D2 receptor (Homo sapiens, UniProt P14416); assay: binding, [^3 H]Raclopride; conditions: for Ki: D2, [^3 H]Raclopride; for affinity for D2 receptors: in words
# Sequence of D2 receptor (P14416 whole entry): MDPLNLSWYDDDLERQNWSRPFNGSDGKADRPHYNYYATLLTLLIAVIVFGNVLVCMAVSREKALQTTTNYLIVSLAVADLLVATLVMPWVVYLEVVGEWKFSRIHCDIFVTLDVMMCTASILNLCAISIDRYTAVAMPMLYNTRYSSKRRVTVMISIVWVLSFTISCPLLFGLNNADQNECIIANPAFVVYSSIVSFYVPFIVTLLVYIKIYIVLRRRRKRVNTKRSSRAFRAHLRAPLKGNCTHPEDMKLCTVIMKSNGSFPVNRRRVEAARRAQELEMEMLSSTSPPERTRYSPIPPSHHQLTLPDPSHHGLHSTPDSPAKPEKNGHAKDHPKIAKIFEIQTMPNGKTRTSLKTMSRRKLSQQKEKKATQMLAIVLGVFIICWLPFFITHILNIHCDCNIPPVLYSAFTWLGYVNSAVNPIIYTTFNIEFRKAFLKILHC
# Description: (§1) Binding affinities of the compounds of Examples 1
# [2] = system: pentobarbital-anesthetized normotensive rats; assay: blood pressure and heart rate in pentobarbital-anesthetized normotensive rats; assay type: in vivo, rat; conditions: 450 μg/kg i.v.; for effect on carotid artery pressure / effect on heart rate: in words
# pithed rats = assay: vasoconstriction / diastolic pressure in pithed rats (Gillespie); assay type: in vivo, rat; conditions: 450 μg/kg i.v.; for peripheral vasoconstriction: in words
# 5-HT2 receptor = 5-HT2 receptor (Homo sapiens, UniProt P28223); assay: biochemical; assay type: binding; conditions: for Ki: 5-HT2, [^3 H]Ketanserin, read-out: Ki; for affinity for 5-HT2 receptors: in words
# Sequence of 5-HT2 receptor (P28223 whole entry): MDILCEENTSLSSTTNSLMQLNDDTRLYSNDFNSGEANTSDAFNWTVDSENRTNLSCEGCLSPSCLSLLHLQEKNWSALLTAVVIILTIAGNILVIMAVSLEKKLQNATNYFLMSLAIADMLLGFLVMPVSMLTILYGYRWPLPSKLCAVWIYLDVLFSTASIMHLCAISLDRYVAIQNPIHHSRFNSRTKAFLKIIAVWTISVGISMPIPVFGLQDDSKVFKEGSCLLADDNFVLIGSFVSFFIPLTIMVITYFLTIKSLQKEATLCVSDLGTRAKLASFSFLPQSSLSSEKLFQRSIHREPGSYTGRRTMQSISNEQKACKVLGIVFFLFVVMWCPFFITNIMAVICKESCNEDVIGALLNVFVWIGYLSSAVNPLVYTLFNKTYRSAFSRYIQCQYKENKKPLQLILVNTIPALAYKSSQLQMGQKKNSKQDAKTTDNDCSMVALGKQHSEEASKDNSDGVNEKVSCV
# Description: as §1
# sigma receptor [3] = assay: binding at [^3 H] DTG binding site; conditions: in words
# sigma receptor [4] = assay: functional test, sigma receptor; conditions: in words
# 5-HT2 receptors = target: T1, 5-HT2 receptors (Mus musculus, UniProt P35363); assay: inhibition of the head twitch response after 5-HTP/carbidopa; assay type: in vivo, mice; conditions: ip; for ED50: mice, read-out: ID50, inhibition of head twitch response
# T1 construct: The head twitch model in mice; from tissue; host or cells: living mice (central nervous system)
# T1 sequence (P35363 whole entry): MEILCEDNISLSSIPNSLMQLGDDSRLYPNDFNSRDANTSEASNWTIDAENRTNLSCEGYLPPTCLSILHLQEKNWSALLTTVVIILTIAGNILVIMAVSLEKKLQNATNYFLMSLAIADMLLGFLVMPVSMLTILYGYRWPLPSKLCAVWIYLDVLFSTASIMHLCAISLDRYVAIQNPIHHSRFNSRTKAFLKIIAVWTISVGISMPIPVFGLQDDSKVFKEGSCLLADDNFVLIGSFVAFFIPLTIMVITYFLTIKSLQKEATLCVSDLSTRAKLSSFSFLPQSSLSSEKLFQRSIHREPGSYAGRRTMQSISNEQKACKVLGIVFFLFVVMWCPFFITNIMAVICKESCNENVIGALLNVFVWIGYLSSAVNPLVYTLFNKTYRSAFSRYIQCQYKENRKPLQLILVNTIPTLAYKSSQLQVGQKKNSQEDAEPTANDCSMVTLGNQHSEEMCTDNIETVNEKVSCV
# Procedure: The substance was injected 15 minutes prior to DL-5-HTP. The head twitch was recorded from 30 to 35 minutes after the DL-5-HTP injection (modified method according to Handley and Singh, Br. J. Pharmacol. 86, 297 (1985)).
# The compound was injected 15 minutes prior to L-5-HTP (modified method according to Handley and Singh, Br. J. Pharmacol. 86, 297 (1985)).
# The head twitch model in mice represents an experimental model for determining the hallucinogenic action of a compound (the method was described by Handley and Singh, Br.J.Pharmacol., 86, 297-303, 1985). It is believed that the response is conveyed via the 5-HT2 receptors.
# [5] = target: T2, 5-HT1A serotoninergic receptor (Homo sapiens, UniProt P08908); assay: functional test, 5-HT1A serotoninergic receptor; conditions: in words
# T2 sequence (P08908 1-422): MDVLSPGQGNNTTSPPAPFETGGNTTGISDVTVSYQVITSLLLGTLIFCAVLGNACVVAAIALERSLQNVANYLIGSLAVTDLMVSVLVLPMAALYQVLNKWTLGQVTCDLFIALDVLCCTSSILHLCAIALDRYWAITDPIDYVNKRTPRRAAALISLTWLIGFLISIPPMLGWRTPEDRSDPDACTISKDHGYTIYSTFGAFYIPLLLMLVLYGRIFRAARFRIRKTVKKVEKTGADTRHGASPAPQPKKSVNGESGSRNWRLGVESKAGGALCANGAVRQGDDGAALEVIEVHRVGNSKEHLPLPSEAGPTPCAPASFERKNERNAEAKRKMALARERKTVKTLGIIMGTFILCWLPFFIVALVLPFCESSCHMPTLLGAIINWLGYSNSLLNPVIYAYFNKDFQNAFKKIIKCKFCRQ
# 5-HT1A receptors = assay: spontaneous tail-flicks in rats; assay type: in vivo, rat; conditions: in words
# [6] = target: T2, 5-HT1A serotoninergic receptor; assay: binding at [^3 H] 8-OH-DPAT binding site; conditions: for affinity to 5-HT1A receptor: [^3 H] 8-OH-DPAT, in words
# Description: as §1
# [7] = system: isolated rabbit thoracic aorta (noradrenaline); assay: inhibition of the constrictive activity of noradrenaline on the isolated rabbit thoracic aorta
# D2 receptors [8] = target: T3, D2 receptors (Rattus norvegicus, UniProt P61169); assay: apomorphine-induced locomotion; assay type: in vivo; conditions: sc, -45 min., apomorphine 0.4 mg/kg s.c., rats, read-out: ID50, apomorphine-induced locomotion
# T3 construct: from tissue; host or cells: living rats (central nervous system)
# T3 sequence (P61169 whole entry): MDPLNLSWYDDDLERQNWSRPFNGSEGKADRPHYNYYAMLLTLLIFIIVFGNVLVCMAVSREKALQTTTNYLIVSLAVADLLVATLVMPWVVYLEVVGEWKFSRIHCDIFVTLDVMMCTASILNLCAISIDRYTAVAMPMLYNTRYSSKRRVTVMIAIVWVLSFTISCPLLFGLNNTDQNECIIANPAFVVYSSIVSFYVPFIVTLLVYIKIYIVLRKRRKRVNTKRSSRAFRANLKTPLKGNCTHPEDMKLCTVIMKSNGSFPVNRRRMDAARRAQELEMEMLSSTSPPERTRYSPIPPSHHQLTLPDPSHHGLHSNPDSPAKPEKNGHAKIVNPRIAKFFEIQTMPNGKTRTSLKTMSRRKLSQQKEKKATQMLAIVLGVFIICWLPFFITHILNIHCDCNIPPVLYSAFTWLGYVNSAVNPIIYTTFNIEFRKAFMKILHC
# [9] = system: isolated rat uterus (serotonin); assay: inhibition of serotonin-induced contractions of the isolated rat uterus; conditions: serotonin-induced contractions (serotonin 2.47×10^-8 M where printed)
# [10] = target: T4, isolated rabbit thoracic aorta (serotonin) (Oryctolagus cuniculus, UniProt G1SYA7)
# T4 construct: isolated rabbit thoracic aorta; from tissue; host or cells: isolated rabbit thoracic aorta
# T4 sequence (G1SYA7 entry or part of it): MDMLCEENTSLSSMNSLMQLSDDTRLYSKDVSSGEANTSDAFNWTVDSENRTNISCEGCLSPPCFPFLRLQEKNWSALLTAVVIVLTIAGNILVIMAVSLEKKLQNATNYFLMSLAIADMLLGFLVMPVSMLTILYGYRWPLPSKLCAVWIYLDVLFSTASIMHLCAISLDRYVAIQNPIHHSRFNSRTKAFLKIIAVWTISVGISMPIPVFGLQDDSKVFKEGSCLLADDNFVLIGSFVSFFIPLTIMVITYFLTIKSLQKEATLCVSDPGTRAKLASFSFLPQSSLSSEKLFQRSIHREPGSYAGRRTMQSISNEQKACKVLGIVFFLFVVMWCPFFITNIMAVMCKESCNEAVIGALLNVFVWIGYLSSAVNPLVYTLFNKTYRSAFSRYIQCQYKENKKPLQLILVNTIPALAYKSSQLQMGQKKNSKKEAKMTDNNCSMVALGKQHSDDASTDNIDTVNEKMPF
# [11] = blood pressure and heart rate in pentobarbital-anesthetized normotensive rats; assay type: in vivo, rat; conditions: rat, in vivo, iv; normotensive rats, pentobarbital-induced anesthesia; read-out: ED50, decrease of the mean arterial blood pressure
# [12] = overall antipsychotic action and side-effect profile (summary statements); assay type: in vivo; conditions: in words
# D2 receptors [13] = target: T5, D2 receptors (Mus musculus, UniProt P61168); assay: apomorphine-induced climbing in mice; assay type: in vivo; conditions: ip, -30 min., apomorphine 1.5 mg/kg s.c., read-out: ID50, climbing behavior
# T5 construct: from tissue; host or cells: living mice (central nervous system)
# T5 sequence (P61168 whole entry): as the sequence (P61169 whole entry) above, with A29P counted along it
# Procedure: The application of apomorphine in a dose of 1.5 mg/kg s.c. caused a characteristic climbing behavior in mice.
# rats = assay: catalepsy in rats; assay type: in vivo, rat; conditions: in words
# Procedure: (§2) The s.c. application of the compounds of Example 5 (0.5 to 16 mg/kg) and of Example 8 (0.125 to 4 mg/kg), respectively, caused catalepsy in rats (the method was described by Morelli and Chiara, Europ. J. Pharmacol. 117, 179-185, 1985).
# catalepsy in rats = assay type: in vivo, rat; conditions: rat, in vivo, sc; rats
# Procedure: as §2
# [14] = prolongation of pentobarbital-induced anesthesia in mice; conditions: mouse, in vivo, ip
# α1 receptor = assay: binding, [^3 H]Prazosin
# Description: (§3) Binding affinities of the compounds of Examples 5
# [15] = spontaneous motor activity in mice; assay type: in vivo; conditions: mouse, in vivo, ip; mice; read-out: ID50, inhibition of spontaneous motor activity
# mice = assay: spontaneous motor activity in mice; assay type: in vivo; conditions: two models (motor activity and pentobarbital anesthesia); vs haloperidol; in words
# α1 receptors = assay: noradrenaline-induced lethality in rats; assay type: in vivo, rat; conditions: s.c.
# D1 receptor = D1 receptor (Homo sapiens, UniProt P21728); assay: binding, [^3 H]SCH23390
# Sequence of D1 receptor (P21728 whole entry): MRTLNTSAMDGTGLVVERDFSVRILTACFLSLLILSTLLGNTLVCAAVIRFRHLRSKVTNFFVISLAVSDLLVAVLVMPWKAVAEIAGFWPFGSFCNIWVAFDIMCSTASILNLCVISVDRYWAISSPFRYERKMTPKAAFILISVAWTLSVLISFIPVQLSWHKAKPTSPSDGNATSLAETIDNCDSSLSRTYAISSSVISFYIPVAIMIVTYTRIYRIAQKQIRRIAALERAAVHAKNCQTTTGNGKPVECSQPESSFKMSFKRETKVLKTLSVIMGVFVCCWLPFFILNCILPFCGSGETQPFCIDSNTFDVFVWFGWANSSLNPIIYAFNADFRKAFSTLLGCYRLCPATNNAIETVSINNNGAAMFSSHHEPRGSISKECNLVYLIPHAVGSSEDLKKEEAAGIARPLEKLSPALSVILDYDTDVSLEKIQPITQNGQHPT
# Description: as §3
smiles,measurement,setting,value
"C#CCNC(=O)[C@@H]1C=C2c3cccc4[nH]cc(c34)C[C@H]2N(C)C1 [Example 1, 9,10-Didehydro-N-(2'-propinyl)-6-methylergoline-8β-carboxamide]",receptors responsible for vasoconstriction,[1]; 1 μM,the result of the activation of α1 -adrenergic receptors
same,constriction of the isolated rabbit thoracic aorta,[1]; in words,caused a constriction of the isolated rabbit thoracic aorta
same,"intrinsic activity, aorta constriction","[1]; in words, vs serotonin",comparable to that of serotonin
same,uterotonic activity,isolated rat uterus,no uterotonic activity
same,dilatation of the pupil,pupil; 5 mg/kg i.p.,very strong dilatation of the pupil
same,time course of effect,pupil; 5 mg/kg i.p.,After 60 minutes the effect was quickly reduced
same,behavioural effects in mice,pupil,"The mice became agitated, piloerection, tremor and excitation took place"
same,Ki,D2 receptor,151 nM
same,affinity for D2 receptors,D2 receptor,lower affinity
same,exitus,[2],followed by exitus
same,time to onset of reduction in pressure and heart rate,[2],Approximately 2 minutes
same,effect on carotid artery pressure,[2],a strong reduction in the carotid artery pressure and heart rate
same,effect on heart rate,[2],a strong reduction in the carotid artery pressure and heart rate
same,peripheral vasoconstriction,pithed rats,"transient, yet very strong peripheral vasoconstriction"
same,Ki,5-HT2 receptor,64 nM
same,affinity for 5-HT2 receptors,5-HT2 receptor,high affinity
same,affinity to sigma receptor,sigma receptor [3],possessed affinity
same,functional activity at sigma receptor,sigma receptor [4],indicated an antagonistic activity
same,inhibition at 4 mg/kg,"5-HT2 receptors; 4 mg/kg i.p., D,L-5-hydroxytryptophan/carbidopa, 15 minutes prior",62%
same,ED50,5-HT2 receptors; 5-hydroxytryptophan/carbidopa,0.74 mg/kg
same,functional activity at 5-HT1A,[5],indicated an agonistic activity
same,spontaneous tail-flick,"5-HT1A receptors; 0.08 to 0.63 mg/kg s.c. (Example 1), 5.0 mg/kg s.c. (Example 2)",provoked a dose- and time-dependent spontaneous tail-flick in rats
same,tail-flick effect compared with 8-OH-DPAT,5-HT1A receptors; s.c.,very similar to that caused by the selective 5-HT1A agonist 8-OH-DPAT
same,Ki,"[6]; 5-HT1A, [^3 H]8-OH-DPAT",1 nM
same,affinity to 5-HT1A receptor,[6],high affinity; also recorded: possessed affinity
"C#CCN(C)C(=O)[C@@H]1C=C2c3cccc4[nH]c(Br)c(c34)C[C@H]2N(C)C1 [Example 5, 2-Bromo-9,10-didehydro-N-methyl-N-(2'-propinyl)-6-methylergoline-8β-carboxamide]",mode of inhibition of noradrenaline constriction,[7]; in words,competitively inhibited
same,pA2,[7]; vs noradrenaline,6.45
same,ED50,D2 receptors [8],0.66 mg/kg
same,IC50,[9],12.5 nM
same,uterotonic activity,isolated rat uterus,no uterotonic activity
same,mode of inhibition of serotonin constriction,[10]; in words,competitively inhibited
same,Kb,"[10]; vs serotonin, read-out: pA2 (converted)",11.7 nM
same,Ki,D2 receptor,2.3 nM
same,affinity for D2 receptors,D2 receptor,high affinity
same,effect on carotid artery pressure,[2],"small, yet statistically significant decrease in carotid artery pressure and heart rate"
same,effect on heart rate,[2],"small, yet statistically significant decrease in carotid artery pressure and heart rate"
same,maximum reduction in carotid artery pressure,[2]; vs initial level,10%
same,reduction in heart rate,[2]; vs initial level,10%
same,ED50,[11],0.42 mg/kg
same,antipsychotic action,[12],strongest antipsychotic action
same,peripheral vasoconstriction,pithed rats,slowly developing peripheric vasoconstriction
same,"peripheric vasoconstriction, increase",pithed rats; vs control,20%
same,Ki,5-HT2 receptor,18 nM
same,affinity for 5-HT2 receptors,5-HT2 receptor,high affinity
same,ED50,D2 receptors [13],6.89 mg/kg
same,affinity to sigma receptor,sigma receptor [3],possessed affinity
same,cataleptic action compared with haloperidole,rats,lesser than the action caused by the typical antipsychotic haloperidole
same,ED50,catalepsy in rats,1.4 mg/kg
same,functional activity at sigma receptor,sigma receptor [4],indicated an antagonistic activity
same,ED50,"5-HT2 receptors; L-5-HTP/carbidopa, 15 minutes prior",3.8 mg/kg
same,functional activity at 5-HT1A,[5],did not indicate any activity
same,ED50,[14],9.2 mg/kg
same,affinity for α1 receptors,α1 receptor; in words,lower
same,Ki,"α1 receptor; α1, [^3 H]Prazosin",29 nM
same,affinity to 5-HT1A receptor,[6],possessed affinity
same,ED50,[15],12.5 mg/kg
same,depressant action on the level of CNS,mice,several times lower depressant action on the level of CNS if compared with haloperidol
same,"ID50, noradrenaline-induced lethality",α1 receptors,5.11 mg/kg
same,Ki,"D1 receptor; D1, [^3 H]SCH23390",97 nM
same,affinity for D1 receptors,D1 receptor; in words,lower
"O=C(CCCN1CCC(O)(c2ccc(Cl)cc2)CC1)c1ccc(F)cc1 [haloperidole, reference compound]",ED50,catalepsy in rats,0.019 mg/kg
